# Experimental data taken from the supplement of paper PMC11208160.
# Experiment: recombinant UMI read abundance after kanamycin selection (control-corrected) (log10(CPM+1)); higher = more efficient recombination; extreme values may be limits of the assay; sequences stand for … in AGTGCAGAGAAAATCGGCCAGTTTTCTCTGCCTGCAGTCCGCATGCCGTGGGACCCCTTGGGTTCTAACCTGTTGCCTAGATTTATGCAGCGGACTGCCTTTCTCCCAAAGTGATAAACCGG…AGGTTGGTTTCACT; site = the 11-nt donor
# How it was run: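 Pooled Escherichia coli screen of donor and donor-binding-loop pairs for the IS621 bridge recombinase. Each pair sits with a 12-nt UMI on a plasmid carrying a promoterless kanamycin gene. The library was co-electroporated with a target plasmid encoding a fixed target and T7-inducible recombinase, then plated with IPTG (0.07 mM) plus kanamycin, or unselected, each in two replicates. Recombinant UMIs were PCR-amplified across the donor–target junction and sequenced. Counts became CPM, averaged over replicates, scaled by control-derived factors and reported as log10(CPM+1).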
row,Sequence,recombinant UMI read abundance (log10)
1,TAGGAATCATGGACCGGTTTTCCCGGTAATCCGTATTTGCG (site TAGGAATCTCG),2.72
2,TAGGAATCATGGACCGGTTTTCCCGGTAATCCGTATTTGCG (site TAGGAATCTCT),2.03
3,TAGGAATCATGGACCGGTTTTCCCGGTAATCCGTATTTGCG (site TAGGAATCTGG),2.08
4,TAGGAATCATGGACCGGTTTTCCCGGTAATCCGTATTTGCG (site TAGGAATCTTG),1.85
5,TAGGAATCATGGACCGGTTTTCCCGGTAATCCGTATTTGCG (site TAGGACTCTCG),0.892
6,TAGGAATCATGGACCGGTTTTCCCGGTAATCCGTATTTGCG (site TAGGAGTCTCG),1.94
7,TAGGAATCATGGACCGGTTTTCCCGGTAATCCGTATTTGCG (site TAGGATTCTCG),1.39
8,TAGGAATCATGGACCGGTTTTCCCGGTAATCCGTATTTGCG (site TAGGCATCTCG),1.14
9,TAGGAATCATGGACCGGTTTTCCCGGTAATCCGTATTTGCG (site TAGGGATCTCG),1.43
10,TAGGAATCATGGACCGGTTTTCCCGGTAATCCGTATTTGCG (site TAGGTATCTCG),1.63
11,TAGGAATCATGGACCGGTTTTCCCGGTAATCCGTATTTGCG (site TAGTAATCTCG),1.71
12,TAGGAATCATGGACCGGTTTTCCCGGTAATCCGTATTTGCG (site TATGAATCTCG),1.63
13,TAGGAATCATGGACCGGTTTTCCCGGTAATCCGTATTTGCG (site TCGGAATCTCG),1.51
14,TAGGAATCATGGACCGGTTTTCCCGGTAATCCGTATTTGCG (site TGGGAATCTCG),1.02
15,TAGGAATCATGGACCGGTTTTCCCGGTAATCCGTATTTGCG (site TTGGAATCTCG),1.47
16,TAGGAATCATGGACCGGTTTTCCCGGTAATCCGTATTTGCT (site TAGGAATCTAG),2.58
17,TAGGAATCATGGACCGGTTTTCCCGGTAATCCGTATTTGCT (site TAGGAATCTCG),1.1
18,TAGGAATCATGGACCGGTTTTCCCGGTAATCCGTATTTGCT (site TAGGAATCTGG),2.28
19,TAGGAATCATGGACCGGTTTTCCCGGTAATCCGTATTTGCT (site TAGGAATCTTG),1.5

row,Sequence,recombinant UMI read abundance (log10)
1,TAGGATGCATGGACCGGTTTTCCCGGTAATCCGTATTTGGC (site TAGGATGCTGC),3.08
2,TAGGCAACATGGACCGGTTTTCCCGGTAATCCGTATTTGAA (site TAGGCAACTTT),0.0147
3,TAGGGACCATGGACCGGTTTTCCCGGTAATCCGTATTTGGT (site TAGGGACCTAC),0.00346
4,TAGGTAACATGGACCGGTTTTCCCGGTAATCCGTATTTGAC (site TAGGTAACTGT),2.17
5,TAGGTGTCATGGACCGGTTTTCCCGGTAATCCGTATTTGCA (site TAGGTGTCTTG),3.29
6,TAGGTTCCATGGACCGGTTTTCCCGGTAATCCGTATTTGCC (site TAGGTTCCTGG),1.32
7,TAGTAAGCATGGACCGGTTTTCCCGGTAATCCGTATTTGTA (site TAGTAAGCTTA),2.8
8,TAGTACCCATGGACCGGTTTTCCCGGTAATCCGTATTTGGT (site TAGTACCCTAC),0.271
9,TAGTACTCATGGACCGGTTTTCCCGGTAATCCGTATTTGCA (site TAGTACTCTTG),2.61
10,TAGTATACATGGACCGGTTTTCCCGGTAATCCGTATTTGAC (site TAGTATACTGT),2.58
11,TAGTATACATGGACCGGTTTTCCCGGTAATCCGTATTTGCA (site TAGAATACTTG),1.23
12,TAGTATACATGGACCGGTTTTCCCGGTAATCCGTATTTGCA (site TAGCATACTTG),1.11
13,TAGTATACATGGACCGGTTTTCCCGGTAATCCGTATTTGCA (site TAGGATACTTG),0.222
14,TAGTATACATGGACCGGTTTTCCCGGTAATCCGTATTTGCA (site TAGTATACTTG),2.25
15,TAGTATCCATGGACCGGTTTTCCCGGTAATCCGTATTTGCA (site TAGTATCCTTG),0.736
16,TAGTGATCATGGACCGGTTTTCCCGGTAATCCGTATTTGCA (site TAGTGATCTTG),3.02
17,TAGTGGGCATGGACCGGTTTTCCCGGTAATCCGTATTTGTC (site TAGTGGGCTGA),2.31
18,TAGTTGCCATGGACCGGTTTTCCCGGTAATCCGTATTTGCC (site TAGTTGCCTGG),0
19,TAGTTGGCATGGACCGGTTTTCCCGGTAATCCGTATTTGTG (site TAATTGGCTCA),0.0238

row,Sequence,recombinant UMI read abundance (log10)
1,TAGTTGGCATGGACCGGTTTTCCCGGTAATCCGTATTTGTG (site TACTTGGCTCA),0.0102
2,TAGTTGGCATGGACCGGTTTTCCCGGTAATCCGTATTTGTG (site TAGTTGGCTCA),0.476
3,TAGTTGGCATGGACCGGTTTTCCCGGTAATCCGTATTTGTG (site TATTTGGCTCA),0.00327
4,TAGTTTCCATGGACCGGTTTTCCCGGTAATCCGTATTTGAA (site TAGTTTCCTTT),0.228
5,TAGTTTGCATGGACCGGTTTTCCCGGTAATCCGTATTTGCC (site TAGTTTGCTGG),0
6,TATACCCCATGGACCGGTTTTCCCGGTAATCCGTATTTGAC (site TATACCCCTGT),1.5
7,TATACTACATGGACCGGTTTTCCCGGTAATCCGTATTTGTG (site TATACTACTCA),0.195
8,TATATCGCATGGACCGGTTTTCCCGGTAATCCGTATTTGAT (site TATATCGCTAT),0.63
9,TATATGGCATGGACCGGTTTTCCCGGTAATCCGTATTTGGT (site TATATGGCTAC),0.39
10,TATATGGCATGGACCGGTTTTCCCGGTAATCCGTATTTGTT (site TATATGGCTAA),0.36
11,TATCAGGCATGGACCGGTTTTCCCGGTAATCCGTATTTGTG (site TATCAGGCTCA),0.113
12,TATCATCCATGGACCGGTTTTCCCGGTAATCCGTATTTGGT (site TATCATCCTAC),0.0117
13,TATCCCGCATGGACCGGTTTTCCCGGTAATCCGTATTTGTT (site TATCCCGCTAA),0.479
14,TATCTTACATGGACCGGTTTTCCCGGTAATCCGTATTTGTA (site TATCTTACTTA),0.0229
15,TATGAATCATGGACCGGTTTTCCCGGTAATCCGTATTTGCC (site TATGAATCTGG),1.12
16,TATGAATCATGGACCGGTTTTCCCGGTAATCCGTATTTGCG (site TAAGAATCTCG),1.85
17,TATGAATCATGGACCGGTTTTCCCGGTAATCCGTATTTGCG (site TACGAATCTCG),2.23
18,TATGAATCATGGACCGGTTTTCCCGGTAATCCGTATTTGCG (site TAGGAATCTCG),0.768
19,TATGAATCATGGACCGGTTTTCCCGGTAATCCGTATTTGCG (site TATGAATCTCG),2.18
